Reference: ChEMBL document CHEMBL5620372, “Pharmacological inhibition of ferroptosis as a therapeutic target for sepsis-associated organ damage” (Eur J Med Chem, 2023)
One block for each compound: values may come before it.

Key:
[1] = Oral bioavailability in human; assay type: ADME, organism-based; settings: in vivo
[2] = Half life in human plasma; assay type: ADME, cell-free
[3] = Drug recovery in rat urine at 10 mg/kg, IG measured after 36 hrs; assay type: ADME, organism-based; settings: po, read-out: Drug recovery
[4] = Drug recovery in rat feces at 10 mg/kg, IG measured after 36 hrs; assay type: ADME, organism-based; settings: faeces, po, read-out: Drug recovery
[5] = Oral bioavailability in human at 2 mg/kg; assay type: ADME, organism-based; settings: in vivo
[6] = Cmax in human plasma; assay type: ADME, cell-free

- bioavailability [1]: 86%
- half-life [2]: 12 min
SMILES: CC(=O)Nc1ccc(O)cc1 [ACETAMINOPHEN]

- dose excreted at 36 h [3]: 0.15%
- dose excreted at 36 h [4]: 0.07%
SMILES: Oc1ccc(/C=C/c2cc(O)cc(O)c2)cc1 [RESVERATROL]

- bioavailability [5]: 7%
- Cmax [6]: 140 ng/mL
SMILES: O=c1c(-c2ccc(O)cc2)coc2c([C@@H]3O[C@H](CO)[C@@H](O)[C@H](O)[C@H]3O)c(O)ccc12 [PUERARIN]
